Measured values from US20050265923A1, “Embolus therapy using insoluble microparticles or vesicles containing contrast agents” (priority 1997, published 2005).

SMILES | melting point
CCOC(=O)c1c(I)c(NC(C)=O)c(I)c(NC(C)=O)c1I [NC 8883, Ethyl 3,5-diacetamido-2,4,6-triiodobenzoate] | 280 to 290 °C (dec.)
CCOC(=O)COC(=O)c1c(I)c(NC(C)=O)c(I)c(NC(C)=O)c1I [NC 12901, Ethyl (3,5-diacetamido-2,4,6-triiodobenzoyloxy)acetate] | 269.5 to 270.5 °C (dec.)
